In PubChem BioAssay AID248 (DTP/NCI, 2004):
Where “and” joins values, the source holds several entries; their conditions need not be identical. Identical values can stand only once. Toxic doses and inconclusive results are not listed.

Tested on: L1210 leukemia ip in BDF1 mice, survival T/C
Assay: NCI In Vivo Anticancer Drug Screen. Data for tumor model L1210 Leukemia (intraperitoneal) in B6D2F1 (BDF1) mice
Conditions: endpoint: mean survival time, higher = longer survival
Procedure, shortened: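 Ratio derived from survival: compound-dosed mice over vehicle-dosed mice, all bearing a transplantable tumor.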

[1] = dose: 100.0 mg/kg/injection, schedule: Q01DX001 (ip), vehicle: Klucel (hydroxypropylcellulose) (HPC)
[2] = dose: 100.0 mg/kg/injection, schedule: Q04DX003 (ip), vehicle: Klucel (hydroxypropylcellulose) (HPC)
[3] = dose: 200.0 mg/kg/injection, schedule: Q01DX001 (ip), vehicle: Klucel (hydroxypropylcellulose) (HPC)
[4] = dose: 200.0 mg/kg/injection, schedule: Q04DX003 (ip), vehicle: Klucel (hydroxypropylcellulose) (HPC)
[5] = dose: 400.0 mg/kg/injection, schedule: Q01DX001 (ip), vehicle: Klucel (hydroxypropylcellulose) (HPC)
[6] = dose: 400.0 mg/kg/injection, schedule: Q04DX003 (ip), vehicle: Klucel (hydroxypropylcellulose) (HPC)
[7] = dose: 100.0 mg/kg/injection, schedule: Q04DX003 (ip), vehicle: saline with Tween-80
[8] = dose: 200.0 mg/kg/injection, schedule: Q04DX003 (ip), vehicle: saline with Tween-80
[9] = dose: 100.0 mg/kg/injection, schedule: Q01DX001 (ip), vehicle: saline

Question: COc1cc(OC)c(NC2=CC(c3ccc(Cl)cc3)OC2=O)cc1Cl (configuration not stated) was tested. Which T/C [1] did it give?
Answer: 92 % of control

Question: What about the T/C [2] of the same compound?
Answer: 92 % of control

Question: What about the T/C [3] of the same compound?
Answer: 94 % of control

Question: What about the T/C [4] of the same compound?
Answer: 95 % of control

Question: And the T/C [5]?
Answer: 92 % of control

Question: And the T/C [6]?
Answer: 95 % of control

Question: Which T/C (dose: 1.25 mg/kg/injection, schedule: Q01DX001 (ip), vehicle: saline) does the source give for c1ccc2c(c1)ccc1ccc3cccc[n+]3c12 here?
Answer: 93 % of control

Question: And the T/C (dose: 2.5 mg/kg/injection, schedule: Q01DX001 (ip), vehicle: saline)?
Answer: 102 % of control

Question: And the T/C (dose: 5.0 mg/kg/injection, schedule: Q01DX001 (ip), vehicle: saline)?
Answer: 108 % of control

Question: What about the T/C (dose: 10.0 mg/kg/injection, schedule: Q01DX001 (ip), vehicle: saline) of the same compound?
Answer: 102 % of control

Question: Which results are given for C1CCCCCC(N2CCCC2)CCCCC1?
Answer: T/C (dose: 6.0 mg/kg/injection, schedule: Q01DX009 (ip), vehicle: saline): 107 % of control; T/C (dose: 12.0 mg/kg/injection, schedule: Q01DX009 (ip), vehicle: saline): 102 % of control; T/C (dose: 12.5 mg/kg/injection, schedule: Q04DX003 (ip), vehicle: saline): 100 % of control; T/C (dose: 25.0 mg/kg/injection, schedule: Q01DX009 (ip), vehicle: saline): 100 % of control; T/C (dose: 25.0 mg/kg/injection, schedule: Q04DX003 (ip), vehicle: saline): 95 % of control

Question: For O=C(N/N=C\c1ccc(O)cc1)N/N=C/c1ccc(O)cc1, which T/C [1] is on record?
Answer: 94 % of control

Question: And the T/C [3]?
Answer: 95 % of control

Question: And the T/C [5]?
Answer: 89 % of control

Question: What does the source list for Nc1cccc2scnc12?
Answer: T/C [7]: 90 % of control; T/C [8]: 95 % of control; T/C (dose: 400.0 mg/kg/injection, schedule: Q04DX003 (ip), vehicle: saline with Tween-80): 90 % of control

Question: Which T/C (dose: 0.94 mg/kg/injection, schedule: Q01DX Z (ip), vehicle: saline) does the source give for CN=C(c1ccc(NC(=O)c2ccc(C(=O)Nc3ccc(C(=NC)N(C)c4ccccc4)cc3)cc2)cc1)N(C)c1ccccc1 here?
Answer: 106 % of control

Question: And the T/C (dose: 1.88 mg/kg/injection, schedule: Q01DX Z (ip), vehicle: saline)?
Answer: 104 % of control

Question: And the T/C (dose: 3.75 mg/kg/injection, schedule: Q01DX Z (ip), vehicle: saline)?
Answer: 90 % of control

Question: Cc1ccc(OC/C=C/CSc2ccc(C)cc2)cc1 was tested. Which T/C [1] did it give?
Answer: 98 % of control

Question: And the T/C [2]?
Answer: 101 % of control

Question: And the T/C [3]?
Answer: 94 % of control

Question: And the T/C [4]?
Answer: 97 % of control

Question: And the T/C [5]?
Answer: 94 % of control

Question: What about the T/C [6] of the same compound?
Answer: 95 % of control

Question: CCC(=O)OC1(c2ccccc2)CCN(C/C=C/c2cccc3ccccc23)CC1 was tested. Which T/C (dose: 100.0 mg/kg/injection, schedule: Q01DX001 (ip), vehicle: gum acacia) did it give?
Answer: 103 % of control

Question: And the T/C (dose: 200.0 mg/kg/injection, schedule: Q01DX001 (ip), vehicle: gum acacia)?
Answer: 103 % of control

Question: How did the T/C (dose: 100.0 mg/kg/injection, schedule: Q04DX002 (ip), vehicle: saline with Tween-80) turn out when O=C1OC2C(Br)CC(Br)CC2C=C1c1ccc([N+](=O)[O-])cc1 (configuration not stated) was run?
Answer: 90 % of control

Question: What about the T/C (dose: 200.0 mg/kg/injection, schedule: Q04DX002 (ip), vehicle: saline with Tween-80) of the same compound?
Answer: 90 % of control

Question: And the T/C (dose: 400.0 mg/kg/injection, schedule: Q04DX002 (ip), vehicle: saline with Tween-80)?
Answer: 93 % of control

Question: How did the T/C [9] turn out when c1ccc(CN2CCOCC2)nc1 was run?
Answer: 96 % of control

Question: What about the T/C (dose: 200.0 mg/kg/injection, schedule: Q01DX001 (ip), vehicle: saline) of the same compound?
Answer: 113 % of control

Question: What about the T/C (dose: 400.0 mg/kg/injection, schedule: Q01DX001 (ip), vehicle: saline) of the same compound?
Answer: 98 % of control

Question: Nc1nc(N)c(C=Nc2ccc(Br)cc2)c(Nc2ccc(Br)cc2)n1 was tested. Which T/C (dose: 50.0 mg/kg/injection, schedule: Q01DX001 (ip), vehicle: alcohol) did it give?
Answer: 100 % of control

Question: Which T/C (dose: 50.0 mg/kg/injection, schedule: Q04DX003 (ip), vehicle: Klucel (hydroxypropylcellulose) (HPC)) does the source give for Cc1c(C)c2c(C(N)=O)c3ccccc3nc2c2ccccc12 here?
Answer: 100 % of control

Question: And the T/C [2]?
Answer: 100 % of control

Question: What about the T/C [4] of the same compound?
Answer: 92 % of control

Question: And the T/C [6]?
Answer: 97 % of control

Question: Which T/C (dose: 15.0 mg/kg/injection, schedule: Q01DX Z (ip), vehicle: methylcellulose (MC)) does the source give for NC(N)=N/N=C(/c1cccs1)C1CC1 here?
Answer: 101 % of control

Question: And the T/C (dose: 15.0 mg/kg/injection, schedule: Q01DX Z (oral), vehicle: methylcellulose (MC))?
Answer: 92 % of control

Question: What about the T/C (dose: 30.0 mg/kg/injection, schedule: Q01DX Z (ip), vehicle: methylcellulose (MC)) of the same compound?
Answer: 96 % of control

Question: What about the T/C (dose: 30.0 mg/kg/injection, schedule: Q01DX Z (oral), vehicle: methylcellulose (MC)) of the same compound?
Answer: 97 % of control

Question: What about the T/C (dose: 60.0 mg/kg/injection, schedule: Q01DX Z (ip), vehicle: methylcellulose (MC)) of the same compound?
Answer: 110 % of control

Question: And the T/C (dose: 120.0 mg/kg/injection, schedule: Q01DX Z (ip), vehicle: methylcellulose (MC))?
Answer: 97 % of control

Question: CSc1nnc2c3ccccc3ccn12 was tested. Which T/C (dose: 100.0 mg/kg/injection, schedule: Q01DX001 (ip), vehicle: carboxymethylcellulose (CMC)) did it give?
Answer: 104 % of control

Question: What about the T/C (dose: 200.0 mg/kg/injection, schedule: Q01DX001 (ip), vehicle: carboxymethylcellulose (CMC)) of the same compound?
Answer: 96 % of control

Question: What about the T/C (dose: 400.0 mg/kg/injection, schedule: Q01DX001 (ip), vehicle: carboxymethylcellulose (CMC)) of the same compound?
Answer: 93 % of control

Question: With Nc1cc(Cl)c2n[nH]nc2n1 as the compound, how does the T/C (dose: 75.0 mg/kg/injection, schedule: Q01DX001 (ip), vehicle: other) read?
Answer: 96 % of control

Question: What about the T/C (dose: 150.0 mg/kg/injection, schedule: Q01DX001 (ip), vehicle: other) of the same compound?
Answer: 102 % of control

Question: What about the T/C (dose: 300.0 mg/kg/injection, schedule: Q01DX001 (ip), vehicle: other) of the same compound?
Answer: 100 % of control

Question: How did the T/C (dose: 10.5 mg/kg/injection, schedule: Q01DX015 (ip), vehicle: saline) turn out when C1O[C@@H]1[C@@H]1CO1 was run?
Answer: 110 % of control

Question: And the T/C (dose: 18.0 mg/kg/injection, schedule: Q01DX015 (ip), vehicle: saline)?
Answer: 110 % of control

Question: What about the T/C (dose: 44.0 mg/kg/injection, schedule: Q01DX001 (ip), vehicle: saline) of the same compound?
Answer: 111 % of control and 116 % of control

Question: What about the T/C (dose: 66.0 mg/kg/injection, schedule: Q01DX001 (ip), vehicle: saline) of the same compound?
Answer: 150 % of control

Question: And the T/C [9]?
Answer: 173 % of control

Question: What about the T/C (dose: 100.0 mg/kg/injection, schedule: Q01DX010 (ip), vehicle: water) of the same compound?
Answer: 167 % of control

Question: What about the T/C (dose: 200.0 mg/kg/injection, schedule: Q01DX010 (ip), vehicle: water) of the same compound?
Answer: 186 % of control

Question: And the T/C (dose: 400.0 mg/kg/injection, schedule: Q01DX010 (ip), vehicle: water)?
Answer: 189 % of control

Question: What about the T/C (dose: 600.0 mg/kg/injection, schedule: Q01DX010 (ip), vehicle: water) of the same compound?
Answer: 157 % of control

Question: Which results are given for CCC1N(C)CCCN1C?
Answer: T/C [7]: 97 % of control; T/C [8]: 95 % of control

Question: For S=C(N/N=C/c1ccccn1)NC1CC2C=CC1C2 (configuration not stated), which T/C (dose: 100.0 mg/kg/injection, schedule: Q01DX009 (ip), vehicle: Klucel (hydroxypropylcellulose) (HPC)) is on record?
Answer: 100 % of control

Question: And the T/C (dose: 200.0 mg/kg/injection, schedule: Q01DX009 (ip), vehicle: Klucel (hydroxypropylcellulose) (HPC))?
Answer: 95 % of control

Question: For O=S(=O)(CBr)CC(Cl)c1ccccc1 (configuration not stated), which T/C (dose: 100.0 mg/kg/injection, schedule: Q04DX002 (ip), vehicle: Klucel (hydroxypropylcellulose) (HPC)) is on record?
Answer: 100 % of control

Question: And the T/C (dose: 200.0 mg/kg/injection, schedule: Q04DX002 (ip), vehicle: Klucel (hydroxypropylcellulose) (HPC))?
Answer: 106 % of control

Question: And the T/C (dose: 400.0 mg/kg/injection, schedule: Q04DX002 (ip), vehicle: Klucel (hydroxypropylcellulose) (HPC))?
Answer: 100 % of control

Question: Which results are given for CN(C)CCCN1c2ccccc2Sc2ccccc21?
Answer: T/C (dose: 4.6 mg/kg/injection, schedule: Q01DX009 (ip), vehicle: saline): 98 % of control; T/C (dose: 9.3 mg/kg/injection, schedule: Q01DX009 (ip), vehicle: saline): 105 % of control; T/C (dose: 9.37 mg/kg/injection, schedule: Q01DX009 (ip), vehicle: saline): 96 % of control; T/C (dose: 18.0 mg/kg/injection, schedule: Q01DX001 (ip), vehicle: saline): 107 % of control; T/C (dose: 18.0 mg/kg/injection, schedule: Q01DX009 (ip), vehicle: saline): 112 % of control; T/C (dose: 18.0 mg/kg/injection, schedule: Q04DX003 (ip), vehicle: saline): 116 % of control; T/C (dose: 18.75 mg/kg/injection, schedule: Q01DX009 (ip), vehicle: saline): 104 % of control and 108 % of control; T/C (dose: 18.75 mg/kg/injection, schedule: Q04DX003 (ip), vehicle: saline): 115 % of control; T/C (dose: 37.0 mg/kg/injection, schedule: Q01DX001 (ip), vehicle: saline): 110 % of control; T/C (dose: 37.0 mg/kg/injection, schedule: Q01DX009 (ip), vehicle: saline): 112 % of control; T/C (dose: 37.0 mg/kg/injection, schedule: Q04DX003 (ip), vehicle: saline): 115 % of control; T/C (dose: 37.5 mg/kg/injection, schedule: Q01DX009 (ip), vehicle: saline): 98 % of control and 122 % of control; T/C (dose: 37.5 mg/kg/injection, schedule: Q04DX003 (ip), vehicle: saline): 102 % of control; T/C (dose: 75.0 mg/kg/injection, schedule: Q01DX001 (ip), vehicle: saline): 105 % of control; T/C (dose: 75.0 mg/kg/injection, schedule: Q01DX009 (ip), vehicle: saline): 122 % of control; T/C (dose: 75.0 mg/kg/injection, schedule: Q04DX003 (ip), vehicle: saline): 102 % of control and 116 % of control
